Values joined by “and” are separate entries in the source; they are usually repeats but may differ in a detail not shown here. Equal values may be shown once. Toxic doses and inconclusive results are not listed.

The subject of the test is P388 leukemia ip, CD2F1 mice, survival T/C. In words: NCI In Vivo Anticancer Drug Screen. Data for tumor model P388 Leukemia (intraperitoneal) in CD2F1 (CDF1) mice. As to conditions: endpoint: median survival time, higher = longer survival. The procedure, abridged: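 Mice carrying the transplanted tumor received test compound or vehicle. Survival was recorded in each group, and the value is the treated-group measurement divided by that of the vehicle-treated control group.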

The mark [1] stands for this setting: dose: 60.0 mg/kg/injection, schedule: Q01DX005 (ip), vehicle: saline with Tween-80.
Setting [2] is: dose: 120.0 mg/kg/injection, schedule: Q01DX005 (ip), vehicle: saline with Tween-80.
The mark [3] stands for this setting: dose: 240.0 mg/kg/injection, schedule: Q01DX005 (ip), vehicle: saline with Tween-80.
[4] abbreviates: dose: 50.0 mg/kg/injection, schedule: Q01DX009 (ip), vehicle: Klucel (hydroxypropylcellulose) (HPC).
Where [5] appears, read: dose: 200.0 mg/kg/injection, schedule: Q01DX009 (ip), vehicle: Klucel (hydroxypropylcellulose) (HPC).
Where [6] appears, read: dose: 100.0 mg/kg/injection, schedule: Q01DX009 (ip), vehicle: Klucel (hydroxypropylcellulose) (HPC).
Setting [7] is: dose: 60.0 mg/kg/injection, schedule: Q01DX005 (ip), vehicle: Klucel (hydroxypropylcellulose) (HPC).
Setting [8] is: dose: 120.0 mg/kg/injection, schedule: Q01DX005 (ip), vehicle: Klucel (hydroxypropylcellulose) (HPC).
[9] abbreviates: dose: 25.0 mg/kg/injection, schedule: Q01DX005 (ip), vehicle: Klucel (hydroxypropylcellulose) (HPC).
Where [10] appears, read: dose: 50.0 mg/kg/injection, schedule: Q01DX005 (ip), vehicle: Klucel (hydroxypropylcellulose) (HPC).
The mark [11] stands for this setting: dose: 100.0 mg/kg/injection, schedule: Q01DX005 (ip), vehicle: Klucel (hydroxypropylcellulose) (HPC).
Setting [12] is: dose: 50.0 mg/kg/injection, schedule: Q01DX009 (ip), vehicle: saline.
Setting [13] is: dose: 100.0 mg/kg/injection, schedule: Q01DX009 (ip), vehicle: saline.
Setting [14] is: dose: 50.0 mg/kg/injection, schedule: Q01DX005 (ip), vehicle: saline with Tween-80.
[15] abbreviates: dose: 100.0 mg/kg/injection, schedule: Q01DX005 (ip), vehicle: saline with Tween-80.
Setting [16] is: dose: 200.0 mg/kg/injection, schedule: Q01DX005 (ip), vehicle: saline with Tween-80.
Setting [17] is: dose: 200.0 mg/kg/injection, schedule: Q01DX005 (ip), vehicle: Klucel (hydroxypropylcellulose) (HPC).

Turning to `CN1CCCN2CCCN(C)P12`, the T/C (dose: 6.25 mg/kg/injection, schedule: Q01DX005 (ip), vehicle: saline) is 99 % of control; the T/C (dose: 12.5 mg/kg/injection, schedule: Q01DX005 (ip), vehicle: saline) is 98 % of control; the T/C (dose: 25.0 mg/kg/injection, schedule: Q01DX005 (ip), vehicle: saline) is 105 % of control.
For the compound `O=[N+]([O-])c1ccccc1N(CCO)CCO`, the T/C is 96 % of control under setting [1], 99 % of control under setting [2] and 98 % of control under setting [3].
Consider `CCN1C(=O)C(C)C(=O)N(C)C1=O` (stereo not given), for which the T/C runs as follows: (dose: 60.0 mg/kg/injection, schedule: Q01DX005 (ip), vehicle: saline) 110 % of control; (dose: 120.0 mg/kg/injection, schedule: Q01DX005 (ip), vehicle: saline) 100 % of control; (dose: 240.0 mg/kg/injection, schedule: Q01DX005 (ip), vehicle: saline) 100 % of control.
Take `CS(=O)(=O)c1nc2ccc(N3C(=O)c4ccccc4C3=O)cc2s1`: the T/C runs as follows: (dose: 12.5 mg/kg/injection, schedule: Q01DX009 (ip), vehicle: Klucel (hydroxypropylcellulose) (HPC)) 108 % of control; (dose: 25.0 mg/kg/injection, schedule: Q01DX009 (ip), vehicle: Klucel (hydroxypropylcellulose) (HPC)) 107 % of control; under setting [4], 110 % of control and 89 % of control; under setting [5], 105 % of control.
In the case of `COc1ccc(S(=O)(=O)NCCSSCCNS(=O)(=O)c2ccc(OC)cc2)cc1`, the T/C reads like this: under setting [4], 91 % of control; under setting [6], 93 % of control; under setting [5], 94 % of control.
Regarding `COC(=O)C(Nc1ccc(OC)cc1)c1ccccc1` (stereo not given), the T/C by setting is: under setting [7], 108 % of control; under setting [8], 104 % of control; (dose: 240.0 mg/kg/injection, schedule: Q01DX005 (ip), vehicle: Klucel (hydroxypropylcellulose) (HPC)) 110 % of control.
`Cc1ccc(-c2cc(=O)c3cccc(CC(=O)O)c3o2)cc1`: the T/C was 112 % of control and 89 % of control under setting [9]; 104 % of control and 118 % of control under setting [10]; 119 % of control and 90 % of control under setting [11].
As for `CC(=O)OC/C(C)=N\NS(=O)(=O)c1cc(Cl)c(Cl)cc1Cl`, the T/C is 99 % of control under setting [12] and 86 % of control under setting [13].
Regarding `C/[N+]([O-])=C1\C(C2COC(C)(C)O2)OC2OC(C)(C)OC12` (stereo not given), the T/C (dose: 100.0 mg/kg/injection, schedule: Q04DX002 (ip), vehicle: saline) was 97 % of control; the T/C (dose: 200.0 mg/kg/injection, schedule: Q04DX002 (ip), vehicle: saline) is 107 % of control; the T/C (dose: 400.0 mg/kg/injection, schedule: Q04DX002 (ip), vehicle: saline) is 105 % of control.
As to `O=C(Nc1ccc(O)c(C(=O)O)c1)Oc1ccc([N+](=O)[O-])cc1`, the T/C reads like this: under setting [1], 102 % of control; under setting [2], 107 % of control; under setting [3], 94 % of control.
In the case of `Cc1cc(NS(=O)(=O)c2ccc(N=c3c4ccccc4n(Cc4ccccc4)c4ccccc34)cc2)no1`, the T/C is, setting by setting: under setting [14], 98 % of control; under setting [15], 97 % of control; under setting [16], 88 % of control.
On to `O=C1c2ccccc2C(=O)C1c1ccc2c(ccc3ccccc32)n1`, for which the T/C runs as follows: under setting [10], 98 % of control; under setting [11], 88 % of control; under setting [17], 96 % of control.
With `COc1ccc(-n2c(C)c(COC(=O)NC(C)C)c(COC(=O)NC(C)C)c2C)cc1`, the T/C is, setting by setting: (dose: 20.0 mg/kg/injection, schedule: Q01DX005 (ip), vehicle: Klucel (hydroxypropylcellulose) (HPC)) 163 % of control; (dose: 40.0 mg/kg/injection, schedule: Q01DX005 (ip), vehicle: Klucel (hydroxypropylcellulose) (HPC)) 172 % of control; under setting [7], 150 % of control and 186 % of control; under setting [8], 181 % of control.
As for `O=C(O)CSc1nnc(Cc2cccc3ccccc23)n1-c1ccccc1`, the T/C reads like this: under setting [10], 100 % of control; under setting [11], 102 % of control; under setting [17], 100 % of control.
In the case of `COc1nc(NC2OC(COC(C)=O)C(OC(C)=O)C(OC(C)=O)C2OC(C)=O)c2c(O)coc2n1` (stereo not given), the T/C (dose: 100.0 mg/kg/injection, schedule: Q01DX001 (ip), vehicle: saline with Tween-80) was 115 % of control; the T/C (dose: 200.0 mg/kg/injection, schedule: Q01DX001 (ip), vehicle: saline with Tween-80) is 106 % of control; the T/C (dose: 400.0 mg/kg/injection, schedule: Q01DX001 (ip), vehicle: saline with Tween-80) is 92 % of control.
For `C=C(/C=C/C1OC2OC(C)(C)OC2C1OC)OP(=O)(OCC)OCC` (stereo not given), the T/C was 103 % of control (dose: 100.0 mg/kg/injection, schedule: Q04DX002 (ip), vehicle: saline with Tween-80); 100 % of control (dose: 200.0 mg/kg/injection, schedule: Q04DX002 (ip), vehicle: saline with Tween-80); 91 % of control (dose: 400.0 mg/kg/injection, schedule: Q04DX002 (ip), vehicle: saline with Tween-80).
Turning to `Cc1noc2c1NC(=O)OC(C)(C)C2`, the T/C runs as follows: (dose: 12.5 mg/kg/injection, schedule: Q01DX005 (ip), vehicle: Klucel (hydroxypropylcellulose) (HPC)) 102 % of control; under setting [9], 105 % of control; under setting [10], 100 % of control; under setting [11], 104 % of control; under setting [17], 101 % of control.
Regarding `Cc1ccc(S(=O)(=O)C(C)(C)C(O)c2ccccc2)cc1` (stereo not given), the T/C is 100 % of control under setting [14], 99 % of control under setting [15] and 92 % of control under setting [16].
As for `NC(COC(=O)NCCCl)C(=O)O` (stereo not given), the T/C is, setting by setting: under setting [4], 88 % of control; under setting [6], 93 % of control; under setting [5], 111 % of control.
Regarding `CCN(CC)Cc1cc(C(CC(=O)c2ccccc2)S(=O)(=O)c2ccc(C)cc2)ccc1O` (stereo not given), the T/C reads like this: (dose: 12.5 mg/kg/injection, schedule: Q01DX009 (ip), vehicle: saline with Tween-80) 88 % of control; (dose: 25.0 mg/kg/injection, schedule: Q01DX009 (ip), vehicle: saline with Tween-80) 89 % of control; under setting [12], 93 % of control.
For `NOCc1cccc([N+](=O)[O-])c1`, the T/C is 104 % of control under setting [12]; 95 % of control under setting [13]; 100 % of control (dose: 200.0 mg/kg/injection, schedule: Q01DX009 (ip), vehicle: saline).
Consider `O=C1CC2C3C1N(c1ccc(Cl)cc1)C1(Nc4ccc(Cl)cc4)C(=O)CC(C31)N2c1ccc(Cl)cc1` (stereo not given), for which the T/C (dose: 7.5 mg/kg/injection, schedule: Q01DX005 (ip), vehicle: Klucel (hydroxypropylcellulose) (HPC)) is 104 % of control; the T/C (dose: 15.0 mg/kg/injection, schedule: Q01DX005 (ip), vehicle: Klucel (hydroxypropylcellulose) (HPC)) was 101 % of control; the T/C (dose: 30.0 mg/kg/injection, schedule: Q01DX005 (ip), vehicle: Klucel (hydroxypropylcellulose) (HPC)) was 92 % of control.
For `CCC(=O)N/C(N)=N\C(N)=O`, the T/C is, setting by setting: (dose: 50.0 mg/kg/injection, schedule: Q01DX005 (ip), vehicle: saline) 95 % of control; (dose: 100.0 mg/kg/injection, schedule: Q01DX005 (ip), vehicle: saline) 98 % of control.
Turning to `COC(=O)C1C(C)(C)N=NC1(C)C`, the T/C (dose: 12.5 mg/kg/injection, schedule: Q01DX009 (ip), vehicle: other) is 113 % of control; the T/C (dose: 25.0 mg/kg/injection, schedule: Q01DX009 (ip), vehicle: other) is 115 % of control; the T/C (dose: 50.0 mg/kg/injection, schedule: Q01DX009 (ip), vehicle: other) was 105 % of control; the T/C (dose: 100.0 mg/kg/injection, schedule: Q01DX009 (ip), vehicle: other) is 103 % of control; the T/C (dose: 200.0 mg/kg/injection, schedule: Q01DX009 (ip), vehicle: other) was 108 % of control.
Regarding `O=C(Sc1ccccc1)N1CCN(C(=O)Sc2ccccc2)CC1`, the T/C runs as follows: under setting [4], 100 % of control; under setting [6], 100 % of control; under setting [5], 109 % of control.
With `Clc1nc(Cl)c2[nH]c(Cl)nc2n1`, the T/C runs as follows: under setting [10], 99 % of control; under setting [11], 99 % of control; under setting [17], 102 % of control.
Regarding `C=C(CSCCCCCCCCCCCC)C(=O)O`, the T/C under setting [14] was 116 % of control, the T/C under setting [15] is 114 % of control and the T/C under setting [16] was 115 % of control.

These data come from PubChem BioAssay AID330 (DTP/NCI, 2004).
